Where a name gives a salt, the structure may show the parent alone.
Experiment: Stability of the deprotected bisthiol measured by HPLC with UV and mass detection
Type: physicochemical
Conditions: room temperature
Procedure: Stability of compound O-5648 (see Example 1, above) was measured by HPLC with UV and mass detection. The bisthiol free base was stable up to 100 hours at room temperature in methanol exposed to air.
The bisthiol dihydrochloride salt was stable in MeOH up to 150 hours at room temperature.
The solid bisthiol dihydrochloride salt exposed to air was stable for >170 hours at room temperature.

CCC(=O)C1C2CC[C@H](C[C@H]1c1ccc(F)cc1)N2CCCN(CCS)CC(=O)NCCS (stereo partly drawn) [O-5648, N-[2-(3′-N′-Propyl-(1″R)-3″α-(4-fluorophenyl)tropane-2″β-(1-propanoyl)-[(2-mercapto-ethyl)-amino]-(2-mercapto-ethyl-acetamide, dihydrochloride salt]
time stable (bisthiol dihydrochloride salt in MeOH) (bisthiol dihydrochloride salt, in MeOH): up to 150 hours
time stable (bisthiol free base in methanol) (bisthiol free base, in methanol exposed to air): up to 100 hours
time stable (solid bisthiol dihydrochloride salt) (solid bisthiol dihydrochloride salt exposed to air): > 170 h

— patent US20090270626A1, “STABLE BISTHIOL COMPOUNDS FOR RA[…] THERAPY” (Organix, Inc., priority 2008, published 2009)
